The results in this text go back to ChEMBL document CHEMBL5634141 (Eur J Med Chem, 2023).

Holding throughout (assay type): functional
Details in all cases: read-out: Activity

In one assay the test system is SW837. As to the kind of experiment: Antiproliferative activity against human SW837 cells expressing KRAS G12C mutant assessed as relative cell viability at 200 nM incubated for 72 hrs by CCK-8 assay. A general note: Tetrazolium dyes change colour on reduction, which living cells bring about.
The subject of the next assay is NCI-H358. As to the kind of experiment: Antiproliferative activity against human NCI-H358 cells expressing KRAS G12C mutant assessed as relative cell viability at 200 nM incubated for 72 hrs by CCK-8 assay.
Another assay deals with MIA PaCa-2. The assay can be described thus: Antiproliferative activity against human MIA PaCa-2 cells expressing KRAS G12C mutant assessed as relative cell viability at 200 nM incubated for 72 hrs by CCK-8 assay.
The next assay concerns Calu-1. The assay can be described thus: Antiproliferative activity against human Calu-1 cells expressing KRAS G12C mutant assessed as relative cell viability at 200 nM incubated for 72 hrs by CCK-8 assay.
The next assay deals with NCI-H23. As to the kind of experiment: Antiproliferative activity against human NCI-H23 cells expressing KRAS G12C mutant assessed as relative cell viability at 200 nM incubated for 72 hrs by CCK-8 assay.

With `C[C@@H](Oc1cc(-c2cnn(C3CCNCC3)c2)cnc1N)c1c(Cl)ccc(F)c1Cl` [CRIZOTINIB], the viability at 0.2 µM in the assay on SW837 was found to be 0.77%; in the assay with NCI-H358, 0.82%; in the assay with MIA PaCa-2, 0.79%; in the assay with Calu-1, 0.87%; with NCI-H23, 0.81%.
